Values after ≈ are worked out from the molar mass of the structure shown.
These compounds were tested on T. cruzi Tulahuen strain C2C4 (assay: Activity against T. cruzi (beta-galactosidase expressing parasites in L-6 cells)). Settings: Trypanosoma cruzi, TULAHUEN, L6, in Rattus norvegicus, 96 h, read-out: Activity (IC50).
Format: cell-based, Trypanosoma cruzi
Protocol: Activity against T. cruzi. Rat skeletal myoblasts (L-6 cells) were seeded in 96-well microtitre plates at 2000 cells/well in 100 μL RPMI 1640 medium with 10% FBS and 2 mM 1-glutamine. After 24 h the medium was removed and replaced by 100 μl per well containing 5000 trypomastigote forms of T. cruzi Tulahuen strain C2C4 containing the […] (Lac Z) gene (Buckner et al. 1996). After 48 h the medium was removed from the wells and replaced by 100 μl fresh medium with or without a serial drug dilution of eleven 3-fold dilution steps covering a range from 100 to 0.002 μg/ml. After 96 h of incubation the plates were inspected under an inverted microscope to assure growth of the controls and sterility. Then the substrate CPRG/Nonidet (50 μl) was added to all wells. A color reaction developed within 2-6 h and could be read photometrically at 540 nm. Data were analyzed with the graphic programme Softmax Pro (Molecular Devices), which calculated IC50 values by linear regression (Huber 1993) from the sigmoidal dose inhibition curves. Benznidazole is used as control (IC50 0.5±0.2 ug/ml). • Buckner, F. S., C. L. Verlinde, A. C. La Flamme, and W. C. Van Voorhis. 1996. Efficient technique for screening drugs for activity against Trypanosoma cruzi using parasites expressing beta-galactosidase, p. 2592-2597, vol. 40. • Huber, W. Koella, J. C. 1993. A comparison of the three methods of estimating EC50 in studies of drug resistance of malaria parasites. Acta Trop. 55, 257-261.

How did the IC50 turn out when CC(=O)Nc1ccc2[nH]c(=O)n(Cc3cccc(C(F)(F)F)c3)c(=O)c2c1 [Example 43, N-(2,4-dioxo-3-(3-(trifluoromethyl)benzyl)-1,2,3,4-tetrahydroquinazolin-6-yl)acetamide] was run?
Its IC50 is 0.804 µg/mL (≈ 2.13 µM).

Same assay, conditions: Trypanosoma cruzi, TULAHUEN, L6, in Rattus norvegicus, 96 h, trypomastigotes in rat skeletal myoblasts (L-6 cells), 96 h incubation, CPRG/Nonidet read at 540 nm; read-out: Activity (IC50)

For CC(=O)Nc1ccc2[nH]c(=O)n([C@H]3CC[C@H](C(C)C)CC3)c(=O)c2c1 [Example 48, N-(3-((1r,4r)-4-Isopropylcyclohexyl)-2,4-dioxo-1,2,3,4-tetrahydroquinazolin-6-yl)acelamide], which IC50 is on record?
The IC50 was 0.018 µg/mL (≈ 0.0524 µM).

CCCCCCn1c(=O)[nH]c2ccc(NC(C)=O)cc2c1=O [Example 41, N-(3-hexyl-2,4-dioxo-1,2,3,4-tetrahydroquinazolin-6-yl)acetamide] was tested. Which IC50 did it give?
Its IC50 is 0.881 µg/mL (≈ 2.9 µM).

For CC(C)C1CCC(n2c(=O)[nH]c3ccc(N)cc3c2=O)CC1 (racemic) [25 (rac), 6-Amino-3-(4-isopropylcyclohexyl)-1H-quinazoline-2,4-dione], which IC50 is on record?
The IC50 was 0.028 µg/mL (≈ 0.0929 µM).

How did the IC50 turn out when CCC1CCC(n2c(=O)[nH]c3ncc(NC(C)=O)cc3c2=O)CC1 (stereo not drawn) [Example 35, N-[3-(trans-4-ethyl-cyclohexyl)-2,4-dioxo-1,2,3,4-tetrahydro-pyrido[2,3-d]pyhmidin-6-yl]-acetamide] was run?
The IC50 was 0.1 µg/mL (≈ 0.303 µM).

How did the IC50 turn out when CC(=O)Nc1ccc2[nH]c(=O)n(CCC3CCCCC3)c(=O)c2c1 [Example 3, N-[3-(2-Cyclohexylethyl)-2,4-dioxo-1,2,3,4-tetrahydroquinazolin-6-yl]acetamide] was run?
The IC50 was 0.162 µg/mL (≈ 0.492 µM).

CC(C)(C)[C@H]1CC[C@H](n2c(=O)[nH]c3ncc(N)cc3c2=O)CC1 [Example 26e, 6-Amino-3-(trans-4-tert-butyl-cyclohexyl)-1H-pyrido[2,3-d]pyrimidine-2,4-dione] was tested. Which IC50 did it give?
Its IC50 is 0.209 µg/mL (≈ 0.661 µM).

CC(=O)Nc1ccc2[nH]c(=O)n(CCCc3ccc(F)cc3)c(=O)c2c1 [Example 44, N-(3-(3-(4-fluorophenyl)propyl)-2,4-dioxo-1,2,3,4-tetrahydroquinazolin-6-yl)acetamide] was tested. Which IC50 did it give?
Its IC50 is 0.943 µg/mL (≈ 2.65 µM).

Cc1noc(C)c1-c1ccc2[nH]c(=O)n(CCC3CCCCC3)c(=O)c2c1 [Example 16c, 3-(2-Cyclohexylethyl)-6-(3,5-dimethylisoxazol-4-yl)quinazoline-2,4(1H,3H)-dione] was tested. Which IC50 did it give?
Its IC50 is 11.5 µg/mL (≈ 31.3 µM).

For Nc1ccc2[nH]c(=O)n(CCC3CCCCC3)c(=O)c2c1 [Example 9, 6-Amino-3-(2-cyclohexylethyl)quinazoline-2,4(1H,3H)-dione], which IC50 is on record?
Its IC50 is 0.339 µg/mL (≈ 1.18 µM).

How did the IC50 turn out when CCC[C@H]1CC[C@@H](n2c(=O)[nH]c3ccc(NC(C)=O)cc3c2=O)CC1 [Example 57, N-(2,4-Dioxo-3-((1r,4s)-4-propylcyclohexyl)-1,2,3,4-tetrahydroquinazolin-6-yl)acetamide] was run?
The IC50 was 0.06 µg/mL (≈ 0.175 µM).

For CC(=O)Nc1ccc2[nH]c(=O)n([C@H]3CC[C@H](C(F)(F)F)CC3)c(=O)c2c1 [Example 53, N-(2,4-dioxo-3-((1r,4r)-4-(trifluoromethyl)cyclohexyl)-1,2,3,4-tetrahydroquinazolin-6-yl)acetamide], which IC50 is on record?
Its IC50 is 0.13 µg/mL (≈ 0.352 µM).

With CC(=O)Nc1ccc2[nH]c(=O)n(CCC3=CCCCC3)c(=O)c2c1 [Example 1c, N-[3-(2-Cyclohex-1-enyl-ethyl)-2,4-dioxo-1,2,3,4-tetrahydro-quinazolin-6-yl]-acetamide] as the compound, how does the IC50 read?
The IC50 was 0.692 µg/mL (≈ 2.11 µM).

CC[C@H]1CC[C@@H](n2c(=O)[nH]c3ccc(NC(C)=O)cc3c2=O)CC1 [Example 55, N-(3-((1s,4s)-4-Ethylcyclohexyl)-2,4-dioxo-1,2,3,4-tetrahydroquinazolin-6-yl)acetamide] was tested. Which IC50 did it give?
The IC50 was 0.3 µg/mL (≈ 0.911 µM).

How did the IC50 turn out when CC(C)(C)C1CCC(n2c(=O)[nH]c3ccc(N)cc3c2=O)CC1 (racemic) [23b (rac), 6-amino-3-(4-tert-butyl-cyclohexyl)-1H-quinazoline-2,4-dione] was run?
Its IC50 is 0.028 µg/mL (≈ 0.0888 µM).

With CC(=O)Nc1ccc2[nH]c(=O)n(CCC3CCCC3)c(=O)c2c1 [Example 42, N-(3-(2-cyclopentylethyl)-2,4-dioxo-1,2,3,4-tetrahydroquinazolin-6-yl)acetamide] as the compound, how does the IC50 read?
The IC50 was 0.713 µg/mL (≈ 2.26 µM).

How did the IC50 turn out when CC(=O)Nc1ccc2[nH]c(=O)n(C3CCC(C)(C)CC3)c(=O)c2c1 [Example 52, N-(3-(4,4-dimethylcyclohexyl)-2,4-dioxo-1,2,3,4-tetrahydroquinazolin-6-yl)acetamide] was run?
The IC50 was 0.058 µg/mL (≈ 0.176 µM).

With CC(=O)Nc1ccc2[nH]c(=O)n([C@H](C)C3CCCCC3)c(=O)c2c1 [Example 2, (R)—N-(3-(1-cyclohexylethyl)-2,4-dioxo-1,2,3,4-tetrahydroquinazolin-6-yl)acetamide] as the compound, how does the IC50 read?
Its IC50 is 0.724 µg/mL (≈ 2.2 µM).

Which IC50 does the source give for O=c1[nH]c2ccc(-c3cccnc3)cc2c(=O)n1CCC1CCCCC1 [Example 17, 3-(2-Cyclohexylethyl)-6-(pyridin-3-yl)quinazoline-2,4(1H,3H)-dione] here?
Its IC50 is 0.655 µg/mL (≈ 1.87 µM).

How did the IC50 turn out when CC(=O)Nc1ccc2[nH]c(=O)n([C@H]3CC[C@H](C(C)(C)F)CC3)c(=O)c2c1 [Example 62, N-(3-((1r,4r)-4-(2-Fluoropropan-2-yl)cyclohexyl)-2,4-dioxo-1,2,3,4-tetrahydroquinazolin-6-yl)acetamide] was run?
The IC50 was 0.933 µg/mL (≈ 2.58 µM).

How did the IC50 turn out when CC(=O)Nc1ccc2[nH]c(=O)n(CCCC3CCCCC3)c(=O)c2c1 [Example 5, N-[3-(3-Cyclohexyl-propyl)-2,4-dioxo-1,2,3,4-tetrahydro-quinazolin-6-yl]-acetamide] was run?
The IC50 was 0.163 µg/mL (≈ 0.475 µM).

How did the IC50 turn out when CC(C)(C)C1CCC(n2c(=O)[nH]c3ccc(-c4ccncc4)cc3c2=O)CC1 (centres unmarked) [Example 21c, 3-(4-(tert-butyl)cyclohexyl)-6-(pyridin-4-yl)quinazoline-2,4(1H,3H)-dione] was run?
The IC50 was 0.892 µg/mL (≈ 2.36 µM).

With CC(C)(C)C1CCC(n2c(=O)[nH]c3ccc(-c4cccnc4)cc3c2=O)CC1 (centres unmarked) [Example 22, 3-(4-(tert-butyl)cyclohexyl)-6-(pyridin-3-yl)quinazoline-2,4(1H,3H)-dione] as the compound, how does the IC50 read?
Its IC50 is 2.63 µg/mL (≈ 6.97 µM).

How did the IC50 turn out when CCNc1ccc2c(c1)c(=O)n(CCC1CCCCC1)c(=O)n2CC [Example 12b, 3-(2-cyclohexylethyl)-1-ethyl-6-(ethylamino)quinazoline-2,4(1H,3H)-dione] was run?
Its IC50 is 7.7 µg/mL (≈ 22.4 µM).

How did the IC50 turn out when COCCn1c(=O)[nH]c2ccc(NC(C)=O)cc2c1=O [Example 6, N-(3-(2-methoxyethyl)-2,4-dioxo-1,2,3,4-tetrahydroquinazolin-6-yl)acetamide] was run?
The IC50 was 9.62 µg/mL (≈ 34.7 µM).

Same assay, conditions: trypomastigotes in rat skeletal myoblasts (L-6 cells), 96 h incubation, CPRG/Nonidet read at 540 nm

With CC(C)[C@H]1CC[C@H](n2c(=O)[nH]c3ccc(N)cc3c2=O)CC1 [25 (trans), 6-Amino-3-((1 r,4r)-4-isopropylcyclohexyl)quinazoline-2,4(1H,3H)-dione] as the compound, how does the “Activity (IC50)” value read?
The value was 0.008 µg/mL.
